Consider five molecules from DBAASP.

Some test systems named below: Enterococcus faecium VR; Enterococcus faecalis; Enterococcus faecium; Enterococcus faecalis VR; Staphylococcus aureus MR; Escherichia coli SBS 363; Candida albicans MDM8; Micrococcus luteus A270; Streptococcus pneumoniae; Klebsiella pneumoniae; Staphylococcus aureus; Citrobacter sp.; Enterobacter cloacae.
Common to all, as to assay: ≥ marks a high value that may be exact or a test limit, other limits are often not marked, values filed in µg/mL are converted to µM
The test system of assay [1] is Pseudomonas aeruginosa 1109.
Assay [2] deals with Acinetobacter baumannii ATCC BAA-747.
The subject of assay [3] is Pseudomonas aeruginosa ATCC 9027.
In assay [4] the test system is Pseudomonas aeruginosa ATCC 27853.
Assay [5] relates to Pseudomonas aeruginosa 1125.
For assay [6], the system named is Pseudomonas aeruginosa ATCC 10145.
Assay [7] has as its system Pseudomonas aeruginosa ATCC 25619.
Assay [8] relates to Acinetobacter baumannii NR-9667.
In assay [9] the test system is Acinetobacter baumannii NR-13375.
The subject of assay [10] is Acinetobacter baumannii ATCC BAA-1605.
In assay [11] the test system is Acinetobacter baumannii ATCC 19606.
Assay [12] has as its system Pseudomonas aeruginosa ATCC 35032.
In assay [13] the test system is Pseudomonas aeruginosa ATCC 15442.
The test system of assay [14] is Pseudomonas aeruginosa ATCC 9721.
In assay [15] the test system is Pseudomonas aeruginosa ATCC BAA-1744.
Assay [16] deals with Escherichia coli CCARM 1229.
The test system of assay [17] is Salmonella typhimurium KCTC 1926.
Assay [18] concerns Pseudomonas aeruginosa 3592.
Assay [19] concerns Pseudomonas aeruginosa 5018.
Assay [20] concerns Salmonella typhimurium CCARM 8013.
In assay [21] the test system is Staphylococcus aureus CCARM 3709.
For assay [22], the system named is Staphylococcus aureus CCARM 3114.
Assay [23] concerns Escherichia coli ATCC 25922.
Assay [24] relates to Staphylococcus aureus ATCC 25923.
Assay [25] has as its system Salmonella typhimurium CCARM 8009.
Assay [26] deals with Listeria monocytogenes KCTC 3710.
Assay [27] concerns Staphylococcus epidermidis KCTC 1917.
In assay [28] the test system is Bacillus subtilis KCTC 3068.
In assay [29] the test system is Staphylococcus aureus KCTC 1621.
Assay [30] has as its system Pseudomonas aeruginosa KCTC 1637.
In assay [31] the test system is Escherichia coli KCTC 1682.
Assay [32] relates to Salmonella enterica subsp. arizonae ATCC 13314.
The subject of assay [33] is Acinetobacter baumannii ATCC 15308.

Values after ≈ are worked out from the molar mass of the structure shown. Values joined by “and” are separate entries in the source; they are usually repeats but may differ in a detail not shown here. Identical values can stand only once.

On to `CC[C@H](C)[C@H](NC(=O)[C@H](Cc1c[nH]c2ccccc12)NC(=O)[C@H](CCCCN)NC(=O)[C@H](CCCCN)NC(=O)[C@@H](NC(=O)[C@H](CCCN=C(N)N)NC(=O)[C@H](CCCN=C(N)N)NC(=O)[C@@H](NC(=O)[C@@H](N)Cc1c[nH]c2ccccc12)[C@@H](C)CC)[C@@H](C)CC)C(=O)N[C@@H](CCCN=C(N)N)C(=O)N[C@@H](CCCN=C(N)N)C(=O)N[C@H](C(=O)N[C@@H](Cc1cnc[nH]1)C(=O)N[C@@H](CCCCN)C(=O)O)C(C)C` [WIRRIKKWIRRVHK], for which the MIC (as a rule, the lowest concentration found to suppress growth) was 16 µM (≈ 31.6 µg/mL) in assay [1]; 4 µM (≈ 7.9 µg/mL) in assay [2]; 4 µM (≈ 7.9 µg/mL) in assay [3]; 8 µM (≈ 15.8 µg/mL) in assay [4]; at least 32 µM in assay [5]; 8 µM (≈ 15.8 µg/mL) in assay [6]. The MIC came out at 8 µM (≈ 15.8 µg/mL) in assay [7]; 4 µM (≈ 7.9 µg/mL) in assay [8]; 2 µM (≈ 3.95 µg/mL) in [9]; 4 µM (≈ 7.9 µg/mL) in assay [10]; 2 µM (≈ 3.95 µg/mL) in [11]; 16 µM (≈ 31.6 µg/mL) in assay [12]. Moreover, the MIC in [13] stood at 16 µM (≈ 31.6 µg/mL); in [14] it was 8 µM (≈ 15.8 µg/mL); in assay [15], 16 µM (≈ 31.6 µg/mL).

As to `CC[C@H](C)[C@H](NC(=O)[C@H](Cc1c[nH]c2ccccc12)NC(=O)[C@H](CCCN=C(N)N)NC(=O)[C@@H](NC(=O)[C@@H](N)CCCN=C(N)N)[C@@H](C)CC)C(=O)N[C@@H](CC(C)C)C(=O)N[C@@H](CCCN=C(N)N)C(=O)N[C@@H](Cc1ccc(O)cc1)C(=O)N[C@@H](Cc1c[nH]c2ccccc12)C(=O)N[C@@H](CCCN=C(N)N)C(=O)N[C@@H](Cc1c[nH]c2ccccc12)C(=O)N[C@@H](CO)C(=O)O` [RIRWILRYWRWS], the MIC in assay [16] is 1 µM and 2 µM; in assay [4], 4 µM (≈ 7.16 µg/mL); in assay [17] it was 2 µM (≈ 3.58 µg/mL); in assay [18], 8 µM (≈ 14.3 µg/mL); in assay [19], 8 µM (≈ 14.3 µg/mL); in [20], 4 µM and 8 µM. For the same molecule, the MIC in assay [21] is 2 µM and 4 µM; in [22], 8 µM and 16 µM; in assay [23], 2 µM (≈ 3.58 µg/mL); in assay [24] it was 1 µM (≈ 1.79 µg/mL); in assay [25], 4 µM (≈ 7.16 µg/mL); in [26] it was 4 µM (≈ 7.16 µg/mL).

`CC[C@H](C)[C@H](NC(=O)[C@H](CS)NC(=O)[C@H](Cc1cnc[nH]1)NC(=O)[C@H](C)NC(=O)[C@H](C)N)C(=O)N[C@H](C(=O)N[C@@H](CC(C)C)C(=O)N[C@@H](Cc1cnc[nH]1)C(=O)N[C@@H](Cc1cnc[nH]1)C(=O)N[C@@H](CC(N)=O)C(N)=O)C(C)C` [AAHCIVLHHN]: the minimum inhibitory concentration (MIC) in the assay with Enterococcus faecium VR came to 30 µM (≈ 33.4 µg/mL); against Enterococcus faecalis, 30 µM (≈ 33.4 µg/mL); in assay [27], 15 µM (≈ 16.7 µg/mL); in assay [28], 15 µM (≈ 16.7 µg/mL); in assay [17] it was 30 µM (≈ 33.4 µg/mL); in the assay with Enterococcus faecium, 30 µM (≈ 33.4 µg/mL). In addition, the MIC was found to be 30 µM (≈ 33.4 µg/mL) in assay [29]; 15 µM (≈ 16.7 µg/mL) in assay [30]; 30 µM (≈ 33.4 µg/mL) in the assay on Enterococcus faecalis VR; 30 µM (≈ 33.4 µg/mL) in assay [31]; 30 µM (≈ 33.4 µg/mL) against Staphylococcus aureus MR.

Regarding `CC[C@H](C)[C@H](NC(=O)[C@H](CC(C)C)NC(=O)[C@H](CO)NC(=O)[C@H](CC(C)C)NC(=O)[C@H](CC(C)C)NC(=O)[C@@H](N)CO)C(=O)N[C@@H](CCCN=C(N)N)C(=O)N[C@@H](CC(C)C)C(=O)N[C@@H](CC(C)C)C(=O)N[C@H](C(=O)N[C@H](C(N)=O)[C@@H](C)O)[C@@H](C)CC` [SLLSLIRLLIT], the minimal inhibitory concentration (MIC) against Escherichia coli SBS 363 was 12.5 µM (≈ 15.5 µg/mL); in [32], at least 50 µM; in [4], 1.6 µM (≈ 1.98 µg/mL); against Candida albicans MDM8, 12.5 µM (≈ 15.5 µg/mL); with Micrococcus luteus A270 it was 12.5 µM (≈ 15.5 µg/mL).

On to `CC[C@H](C)[C@H](NC(=O)[C@H](CCSC)NC(=O)[C@H](C)NC(=O)[C@@H]1CCCN1C(=O)[C@@H](NC(=O)[C@@H](NC(=O)[C@H](CCCCN)NC(=O)[C@@H](NC(=O)[C@H](CC(C)C)NC(=O)CNC(=O)CNC(=O)[C@H](CC(C)C)NC(=O)[C@@H](N)Cc1ccccc1)[C@@H](C)CC)[C@@H](C)CC)C(C)C)C(=O)N[C@H]1CSSC[C@@H](C(=O)O)NC(=O)[C@H](CCCCN)NC(=O)[C@H](CCCCN)NC(=O)[C@H](CCCN=C(N)N)NC(=O)[C@H](C(C)C)NC(=O)[C@H](C)NC1=O` [FLGGLIKIVPAMICAVRKKC], for which the MIC is at least 116 µM in the assay on Streptococcus pneumoniae; at least 116 µM in assay [33]; above 116 µM in the assay with Klebsiella pneumoniae; 116 µM (≈ 250 µg/mL) in the assay with Staphylococcus aureus; 116 µM (≈ 250 µg/mL) in assay [23]; at least 116 µM in [13]. Besides, the MIC in assay [24] is 57.8 µM (≈ 125 µg/mL); in the assay with Citrobacter sp., at least 116 µM; with Enterobacter cloacae it was at least 116 µM.
